Source: patent US10076567B2, “MPER-liposome conjugates and uses thereof” (Duke University, priority 2013, dated 2018)

Assays:
Immunogen Peptides = assay: NHP#91 Week 14 plasma binding to immunogen peptides by ELISA; format: in vivo, Rhesus macaques; conditions: NHP#91, Week 14, ELISA log AUC
Text: (§1) Rhesus macaques were immunized in 5 groups for NHP#87 with the different MPER peptide liposomes. Group 5 animals were immunized with a swarm of all of the MPER peptide liposomes. 4 animals per group. NHP#91 was a study to compare two adjuvants. Group 1 had MPLA alone and Group2 had R848 alone. The immunogen for both groups was the original MPER656 peptide liposome. The idea was to compare group 1 and 2 from this study to group 4 from NHP#87 where the animals received both MPLA and R848.
(§2) NHP#91 and last group (656+MPLA+R848) is group 4 of NHP#87; Isolated plasma at Week 14 was screened for binding to each immunogen by ELISA. Plotted is the log area under the curve for binding for each individual monkey separated by group. Solid line indicates the average log AUC for each group.

MPER-Specific Proteins = assay: NHP#91 Week 14 plasma binding to MPER-specific proteins by ELISA; format: in vivo, Rhesus macaques; conditions: NHP#91, Week 14, ELISA log AUC
Text: as §1
as §2, with “NHP#87 (for all panels pre-immune substracted);” for “NHP#87;”

2F5 mAb [1] = assay: SPR binding of 2F5 mAb to MPER peptide-liposomes with TLR adjuvants
Description: FIGS. 10A-10C. Interaction of 2F5 mAb with MPER peptide-liposomes conjugated to TLR adjuvants.
FIG. 21 Binding of BNAb 2F5 and 4E10 to MPER peptide-liposomes described in FIGS. 19-20. Synthetic MPER peptide-liposomes complexed to the indicated MPER peptide and TLR adjuvants (R848, Lipid A) were anchored on a BIAcore sencor ship (L1) and each mAb (2 μg/mL) injected over the surface. Binding shown is after subtraction of non-specific signal measured on a control liposome surface.

2F5 mAb [2] = conditions: for 2F5 mAb binding response: background subtracted, 10 seconds after the injection was stopped, peptides anchored to liposomes
Description: FIGS. 6A and 6B. […] FIG. 6A. […] FIG. 6B.
SPR binding assays were performed on a BIAcore 3000 (BIAcore Inc, Piscattaway, N.J.) maintained at 20° C. as previously described (Alam et al, J. Immunol. 178:4424-4435 (2007)). […] Specific binding responses of mAb binding were obtained following subtraction of non-specific binding on the scrambled 2F5 peptide surface.

Substance: Monophosphoryl Lipid A [MPLA]
- plasma binding to immunogen peptides, adjuvant comparison (Immunogen Peptides): better than R848
- plasma binding to MPER-specific proteins, adjuvant comparison (MPER-Specific Proteins): better than R848

Substance: NEKDLLALDSWKNLWNWFSITKWLWYIK [MPER656.2]
- binding of 2F5 mAb to peptide-liposome construct (2F5 mAb [1]): lack of binding

Substance: QQEKNEQELLELDKWASLWNYKRWIILGLNKIVRMYS-biotin [consensus 2F5 epitope]
- 2F5 mAb binding response (2F5 mAb [2]): 494.6 response unit

Substance: QQEKNEQELLELDKWASSWNYKRWIILGLNKIVRMYS-biotin
- off-rate of the mAb 2F5-peptide liposome complex (2F5 mAb [2]): significantly slower off-rates
- 2F5 mAb binding response (2F5 mAb [2]): 616.7 response unit
